According to US20150359884A1, “MULTI-PHOTON ISOMERISATION OF COMBRETASTATINS AND THEIR USE IN THERAPY” (priority 2011, published 2015):

What was measured:
cells = conditions: typical toxicity assays; cited from earlier work
[1] = Fluorescence quantum yields in solvents, UV one-photon excitation; format: physicochemical; conditions: 20° C., 290-300 nm excitation
Procedure: Absorption spectra were measured in either a Perkin Elmer Lambda 25 or 950 spectrophotometer. Fluorescence measurements were made with either a Spex Fluoromax or Varian Cary Eclipse spectrofluorimeter using the spectral correction curves supplied by the manufacturers. Fluorescence quantum yields with UV (one-photon) excitation were determined using either 2-aminopyridine (Φref 0.6 [7]) or 9-chloroanthracene (Φref 0.50 in dichloromethane, determined here relative to 9,10-diphenylanthracene in cyclohexane (Φref 0.97) and anthracene in ethanol (Φref 0.28 [8]) as standards. Fluorescence quantum yields were determined from the relative slopes of plots of integrated fluorescence intensity versus (1-10^−A) for samples having absorbance A≦0.1. The square of the refractive index (n^2) correction was applied when sample and reference compounds were in different solvents. Irradiation of the samples was minimized by the use of narrow excitation slits to reduce simultaneous photoisomerization.
The fluorescence quantum yields for E-CA4F were generally somewhat higher than for E-CA4.

[2] = Fluorescence lifetimes in solvents, two-photon excitation with TCSPC; format: physicochemical; conditions: for Fluorescence lifetime τ: 20° C., two-photon excitation 620-630 nm
Procedure: Fluorescence lifetimes were determined using 2PE at 630 nm with the microscope TCSPC setup (overall time response of 25 ps fwhm) and produced the results shown in Table 1. […] Characterisation of the spectroscopic properties of these latter two compounds remains to be investigated further. […] In the very viscous environment provided by glycerol the lifetime increases further to 1180 ps. In the range of alkanols studied the lifetime is closely correlated with solvent viscosity as shown in the inset to FIG. 3. […] However it is clear that the measured lifetime has the potential to report on cellular environments in FLIM studies. For E-CA4F similar trends are observed, but the overall differences in both lifetimes and quantum yields over the range of solvents are rather less than for E-CA4. The fluorescence lifetimes of E-CA4F are confined to a narrower range having values ranging from 440 ps in methanol through 740 ps in hexane to 1070 ps in glycerol. The more pronounced solvent dependence for E-CA4 no doubt reflects the more polar nature of the molecule compared with E-CA4F. The relative polarities may be judged from the partition coefficients (P) calculated according to the method of Brown et al..

In the case of `COc1ccc(/C=C/c2cc(OC)c(OC)c(OC)c2)cc1O` [E-CA4, (E)-1-(3′,4′,5′-Trimethoxyphenyl)-2-(4″-methoxy-3″-hydroxy-phenyl)ethene], the “Concentrations required to kill cells” value (cells) is listed as “micromolar”, the “Fluorescence quantum yield φ” value ([1]; DCM) is listed as 0.19 and the “Fluorescence quantum yield φ” value ([1]; DMSO) is listed as 0.15. For the same compound, the “Fluorescence quantum yield φ” value ([1]; EtOH) was 0.093, the “Fluorescence quantum yield φ” value ([1]; Ethylene glycol) was 0.19 and the “Fluorescence quantum yield φ” value ([1]; Glycerol) was 0.35. For the same compound, the “Fluorescence quantum yield φ” value ([1]; Hexane) was 0.36, the “Fluorescence quantum yield φ” value ([1]; MeCN) was 0.099 and the “Fluorescence quantum yield φ” value ([1]; MeOH) was 0.071. For the same compound, the “Fluorescence lifetime τ” value ([2]; DCM, ne = non-exponential) was 0.50 ns, the “Fluorescence lifetime τ” value ([2]; DMSO) was 0.49 ns and the “Fluorescence lifetime τ” value ([2]; EtOH, ne = non-exponential) was 0.28 ns. For the same compound, the “Fluorescence lifetime τ” value ([2]; Ethylene glycol, ne = non-exponential) was 0.58 ns, the “Fluorescence lifetime τ” value ([2]; Glycerol, ne = non-exponential) was 1.18 ns and the “Fluorescence lifetime τ” value ([2]; Hexane) was 0.86 ns. For the same compound, the “Fluorescence lifetime τ” value ([2]; MeCN, ne = non-exponential) was 0.29 ns, the “Fluorescence lifetime τ” value ([2]; MeOH, ne = non-exponential) was 0.23 ns and the Fluorescence lifetime ([2]; acetonitrile) was “around 220 ps”. It also gave a Fluorescence lifetime ([2]; as shown in FIG. 10, compared with TRIR in dichloromethane) of 500 ps, a Fluorescence lifetime ([2]; glycerol) of 1180 ps and a Fluorescence lifetime ([2]; hexane) of 855 ps.
